Test results as given in patent US20230382894A1, “CCR4 ANTAGONISTS” (CHEMOCENTRYX, INC., priority 2022, published 2023).

Key:
[1] = target: T1, CCR4 (Homo sapiens, UniProt P51679); experiment: CEM cell chemotaxis (migration) assay to CCL22 (MDC) in 100% Fetal Bovine Serum (FBS); format: cell-based; conditions: CEM cells in 100% FBS with 1% HEPEs; recombinant human CCL22 0.1 nM; 37° C. 60 minutes
T1 construct: CEM Cells Endogenous Express CCR4; endogenous in cells; host or cells: CEM cells
T1 sequence (P51679 1-360): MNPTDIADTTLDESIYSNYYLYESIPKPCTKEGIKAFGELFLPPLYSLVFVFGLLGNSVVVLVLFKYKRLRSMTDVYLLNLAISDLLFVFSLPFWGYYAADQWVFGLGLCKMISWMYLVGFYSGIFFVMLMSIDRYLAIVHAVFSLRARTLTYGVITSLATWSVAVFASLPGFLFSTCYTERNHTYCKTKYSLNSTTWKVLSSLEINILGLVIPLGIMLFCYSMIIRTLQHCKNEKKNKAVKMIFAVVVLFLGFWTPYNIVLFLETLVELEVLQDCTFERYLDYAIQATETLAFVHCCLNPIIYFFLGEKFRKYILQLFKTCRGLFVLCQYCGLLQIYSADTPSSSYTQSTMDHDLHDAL
How it was run: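 Endogenously CCR4-expressing CEM cells in 100% FBS with 1% HEPES were preincubated with serially diluted compound (top final 10 μM) and allowed to migrate through 5 μm polycarbonate membranes toward 0.1 nM human CCL22 (EC50) for 60 min at 37 °C. Migrated cells were quantified by CyQUANT fluorescence.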

[2] = target: T1, CCR4; experiment: CEM cell chemotaxis (migration) assay to CCL22 (MDC) in HBSS buffer with 0.1% BSA; format: cell-based; conditions: CEM cells in HBSS with 0.1% BSA; recombinant human CCL22 0.1 nM; 37° C. 60 minutes

SMILES | IC50 [1] | IC50 [2]
C[C@@H](Nc1nc(N2CCN(C(=O)CCN(C)C)CC2)ncc1Cl)c1ccc(Cl)cc1Cl [Example 1.010] | < 100 nM | < 100 nM
C[C@@H](Nc1nc(N2CCC(NC(=O)C3CCN(C)C3)CC2)ncc1Cl)c1ccc(Cl)cc1Cl (some centres unmarked) [Example 1.009] | < 100 nM | < 100 nM
C[C@@H](Nc1nc(N2CCN(C(=O)[C@H]3CCCN3)CC2)ncc1Cl)c1ccc(Cl)cc1Cl [Example 1.053] | < 100 nM | < 100 nM
C[C@@H]1CN(c2ncc(Cl)c(N[C@H](C)c3ccc(Cl)cc3Cl)n2)[C@@H](C)CN1C1CCCN(CCC(=O)O)C1 (some centres unmarked) [Example 1.017] | < 100 nM | < 100 nM
C[C@@H](Nc1nc(N2CCN(C3CCCN(CC(=O)O)C3)CC2)ncc1Cl)c1ccc(Cl)cc1Cl (some centres unmarked) [Example 1.063] | < 100 nM | < 100 nM
C[C@@H](Nc1nc(N2CCC(C(=O)N3CC[C@H](O)[C@@H](N(C)C)C3)CC2)ncc1Cl)c1ccc(Cl)cc1Cl [Example 1.133] | > 1000 nM | 100 to 1000 nM
C[C@@H](Nc1nc(N2CCN(C(=O)[C@H]3CCCN3)C(C)(C)C2)ncc1Cl)c1ccc(Cl)cc1Cl [Example 1.030] | 100 to 1000 nM | > 1000 nM
Cc1nc(N2CCN(C(=O)[C@H]3CCC(=O)N3)CC2)nc(N[C@H](C)c2ccc(Cl)cc2Cl)c1Cl [Example 1.113] | < 100 nM | < 100 nM
Cc1nc(N2CCN(C(=O)[C@H]3CCCN3)[C@H](CO)C2)nc(N[C@H](C)c2ccc(Cl)cc2Cl)c1Cl [Example 1.043] | < 100 nM | < 100 nM
C[C@@H](Nc1nc(N2CCN(C3CN[C@H](C(=O)O)C3)CC2)ncc1Cl)c1ccc(Cl)cc1Cl (some centres unmarked) [Example 1.153] | > 1000 nM | > 1000 nM
C[C@@H](Nc1nc(N2CCN(C(=O)[C@H]3CCCN3)CC2)nc(N)c1Cl)c1ccc(Cl)cc1Cl [Example 1.080] | < 100 nM | < 100 nM
C[C@@H](Nc1nc(N2CCN(C(=O)[C@H]3CCCN3)CC2)ncc1C(F)(F)F)c1ccc(Cl)cc1Cl [Example 1.007] | < 100 nM | < 100 nM
C[C@@H](Nc1nc(N2CCN(C(=O)[C@H]3CCCCN3)CC2)ncc1Cl)c1ccc(Cl)cc1Cl [Example 1.044] | < 100 nM | < 100 nM
CC(Nc1nc(N2CCC(C(=O)N(C)C3CCNC3)CC2)ncc1Cl)c1ccc(Cl)cc1Cl (centres unmarked) [Example 1.065] | < 100 nM | < 100 nM
C[C@@H]1CN(c2ncc(Cl)c(N[C@H](C)c3ccc(Cl)cc3Cl)n2)CCN1C(=O)c1c[nH]c(=O)n(C)c1=O [Example 1.018] | > 1000 nM | > 1000 nM
C[C@@H](Nc1nc(N2CCC(C3CCCNC3)CC2)ncc1Cl)c1ccc(Cl)cc1Cl (some centres unmarked) [Example 1.045] | < 100 nM | < 100 nM
C[C@@H](Nc1nc(N2CC[C@@H](NC(=O)[C@H]3CCCN3)[C@H](O)C2)ncc1Cl)c1ccc(Cl)cc1Cl [Example 1.013] | < 100 nM | < 100 nM
C[C@@H](Nc1nc(N2CC[C@H](NC(=O)[C@H]3CCCN3)[C@@H](O)C2)ncc1Cl)c1ccc(Cl)cc1Cl [Example 1.012] | < 100 nM | < 100 nM
C[C@@H](Nc1nc(N2CCN(C(=O)[C@H]3CCN(C(N)=O)C3)CC2)ncc1Cl)c1ccc(Cl)cc1Cl [Example 1.134] | < 100 nM | < 100 nM
C[C@@H](Nc1nc(N2CCC(N(C)C(=O)[C@H]3CCCN3)CC2)ncc1Cl)c1ccc(Cl)cc1Cl [Example 1.008] | < 100 nM | < 100 nM

SMILES | IC50 [1] | IC50 [2]
C[C@H](Nc1nc(N2CCN(C(=O)[C@@H]3CCC(=O)N3)CC2)ncc1Cl)c1ccc(Cl)cc1Cl [Example 1.253] | > 1000 nM | > 1000 nM
C[C@@H](Nc1nc(N2CCN(C3CCCNC3)CC2)ncc1Cl)c1ccc(Cl)cc1Cl (some centres unmarked) [Example 1.055] | < 100 nM | < 100 nM
C[C@@H](Nc1nc(C2=CCN([C@H]3CCCN(CCO)C3)CC2)ncc1Cl)c1ccc(Cl)cc1Cl [Example 1.058] | < 100 nM | < 100 nM
C[C@@H](Nc1nc(N2CCN(C(=O)[C@H]3COCCN3)CC2)ncc1Cl)c1ccc(Cl)cc1Cl [Example 1.135] | < 100 nM | < 100 nM
C[C@@H](Nc1nc(N2CCC(C(=O)NCCN(C)C)CC2)ncc1Cl)c1ccc(Cl)cc1Cl [Example 1.026] | < 100 nM | < 100 nM
C[C@@H](Nc1nc(N2CCC(NC(=O)[C@H]3CCCN3)CC2)ncc1Cl)c1ccc(Cl)cc1Cl [Example 1.039] | < 100 nM | < 100 nM
C[C@@H](Nc1nc(N2CCN(C(=O)[C@H]3CCC(=O)N3)C[C@@H]2C)ncc1Cl)c1ccc(Cl)cc1Cl [Example 1.081] | < 100 nM | < 100 nM
C[C@@H](Nc1nc(N2CCC(NC(=O)[C@H]3CC(F)(F)CN3)CC2)ncc1Cl)c1ccc(Cl)cc1Cl [Example 1.136] | > 1000 nM | > 1000 nM
C[C@@H](Nc1nc(N2CCN(C(=O)C3CCN(C)C3)CC2)ncc1Cl)c1ccc(Cl)cc1Cl (some centres unmarked) [Example 1.022] | < 100 nM | < 100 nM
C[C@H](Nc1nc(N2CCN(C(=O)[C@H]3CCC(=O)N3)CC2)ncc1Cl)c1ccc(Cl)cc1Cl [Example 1.252] | > 1000 nM | > 1000 nM
C[C@@H](Nc1nc(N2CCN(C(=O)[C@H]3CCCN3CCO)CC2)ncc1Cl)c1ccc(Cl)cc1Cl [Example 1.046] | < 100 nM | < 100 nM
C[C@@H](Nc1nc(N2CCC(N(CCO)C(=O)[C@H]3CCCN3)CC2)ncc1Cl)c1ccc(Cl)cc1Cl [Example 1.064] | < 100 nM | < 100 nM
C[C@@H]1CN(c2ncc(Cl)c(N[C@H](C)c3ccc(Cl)cc3Cl)n2)[C@@H](C)CN1C(=O)[C@H]1CCCN1 [Example 1.034] | < 100 nM | < 100 nM
C[C@@H](Nc1nc(N2CCN(C(=O)[C@H]3C[C@H](O)CN3)CC2)ncc1Cl)c1ccc(Cl)cc1Cl [Example 1.023] | < 100 nM | < 100 nM
CNC1CCN(C(=O)N2CCN(c3ncc(Cl)c(N[C@H](C)c4ccc(Cl)cc4Cl)n3)CC2)C1 (some centres unmarked) [Example 1.005] | < 100 nM | < 100 nM
C[C@@H](Nc1nc(N2CCN(C(=O)[C@H]3CCCN3)[C@H](C(=O)O)C2)ncc1Cl)c1ccc(Cl)cc1Cl [Example 1.151] | < 100 nM | < 100 nM
C[C@@H](Nc1nc(N2CCN(C(=O)[C@H]3CCC(=O)N3)CC2)ncc1Cl)c1ccc(Cl)cc1Cl [Example 1.148] | < 100 nM | < 100 nM
C[C@@H](Nc1nc(N2CCN(C(=O)[C@@H]3NC(=O)[C@@H]4C[C@@H]43)CC2)ncc1Cl)c1ccc(Cl)cc1Cl [Example 1.251] | < 100 nM | < 100 nM
C[C@@H](Nc1nc(N2CCC(N3CC(=O)NC3=O)CC2)ncc1Cl)c1ccc(Cl)cc1Cl [Example 1.132] | > 1000 nM | > 1000 nM
C[C@@H](Nc1nc(N2CCN(C(=O)[C@H]3CCCN3)[C@@H](C)C2)ncc1Cl)c1ccc(Cl)cc1Cl [Example 1.011] | < 100 nM | < 100 nM
